Assays:
[1] = target: T1, 11β-hydroxysteroid dehydrogenase type 1 (murine 11βHSD1, m11βHSD1) (Mus musculus, UniProt P50172); assay: competitive inhibition of 11-DHC reduction by recombinant enzyme (Dixon plot, HPLC); also itself reduced as a poor substrate (Km […]); type: biochemical
T1 construct: gene Hsd11b1; truncated form of recombinant m11βHSD1 protein (N23Δ)

[2] = target: T1, 11β-hydroxysteroid dehydrogenase type 1 (murine 11βHSD1, m11βHSD1); assay: competitive inhibition of corticosterone oxidation by recombinant enzyme (Dixon plot, HPLC); also itself oxidised as a poor substrate (Km […]); type: biochemical

T1 sequence (P50172 24-292): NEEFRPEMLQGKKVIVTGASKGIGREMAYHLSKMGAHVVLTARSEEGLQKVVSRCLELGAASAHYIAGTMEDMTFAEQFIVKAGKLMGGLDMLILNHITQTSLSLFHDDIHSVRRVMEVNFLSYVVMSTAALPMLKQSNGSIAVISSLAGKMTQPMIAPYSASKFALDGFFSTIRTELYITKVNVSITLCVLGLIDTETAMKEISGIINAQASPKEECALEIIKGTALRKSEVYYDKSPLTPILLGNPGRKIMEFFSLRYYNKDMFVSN

SMILES | Ki [1] | Ki [2]
CC(C)CCC[C@@H](C)[C@H]1CC[C@H]2[C@@H]3C(=O)C=C4C[C@@H](O)CC[C@]4(C)[C@H]3CC[C@]12C [7KC, 7-ketocholesterol] | 7.33 ± 1.76 µM | 
CC(C)CCC[C@@H](C)[C@H]1CC[C@H]2[C@@H]3[C@@H](O)C=C4C[C@@H](O)CC[C@]4(C)[C@H]3CC[C@]12C [7βOHC, 7β-hydroxycholesterol] |  | 0.91 ± 0.05 µM
